The target in one assay is PDHK2 (Homo sapiens (Human), UniProt Q15119). Kind of assay: Biochemical activity testing of PDHK2: PDC inactivation assay. The conditions noted are these: human rec PDHK2, porcine heart PDC, 5 μM ATP, read-out: IC50 PDHK2 (enzyme assay). The text has this:
Biochemical Activity Testing of PDHK2: PDC Inactivation Assay
The biochemical activity assay for PDHK2 is based on the inactivation of PDC through phosphorylation by PDHK2. The assay is run in two steps: the enzymatic PDHK2 reaction in which isolated PDC is phosphorylated by PDHK2 with ATP as co-substrate and the PDC activity assay in which pyruvate and NAD are converted to acetyl-CoA and NADH. The PDC activity correlates to the increase in NADH and thereby is detectable directly via the increasing fluorescence signal (Exc 340 nm, Em 450 nm). Inhibition of PDHK2 results in a lower phosphorylation status and thereby a less decrease in activity of PDC and a stronger increase in NADH fluorescence signal.
The PDC inactivation assay is performed in Greiner 384-well microtiter plates and is used for high throughput screen. 4 μl of PDHK2 (human, rec, Carna Bioscience, 10 ng/μl-137 nM final concentration) and PDC (isolated from porcine heart, Sigma-Aldrich, 20 mU/ml final concentration) are incubated in the absence or presence of the test compound (10 dilution concentrations) for 30 min at room temperature in kinase buffer (15 mM potassium phosphate buffer, pH 7.0, 60 mM KCl, 1.5 mM DTT, 2.5 mM MgCl2, 0.0125% (w/v) BSA, 0.125% Pluronic F-68). The kinase reaction is started by the addition of 4 μl ATP substrate solution (fc 5 μM in kinase buffer). After 30 min incubation at 37° C. 40 μl of PDC reaction solution (100 mM Tris/HCl, pH 7.8, 0.5 mM EDTA, 1 mM MgCl2, 50 mM NaF, 0.25 mM Coenzyme A, 5 mM pyruvate, 1 mM NAD, 5 mM DTT, 1 mM thiamine pyrophosphate) is added. The first fluorescence measurement is performed on a Perkin Elmer Envision (Exc 340 nm, Em 450 nm). The reaction is incubated for 45 min at room temperature. Afterwards a second fluorescence measurement is performed and the PDC activity is calculated by the difference between both measurements. As full value for the PDHK2 assay the inhibitor-free PDHK2 reaction is used. The pharmacological zero value used is DCA (Sigma-Aldrich) in a final concentration of 3 mM. The inhibitory values […] were determined using either the program Symyx Assay Explorer® or Condosseo® from GeneData.

For assay [1], the system named is PDH-E1alpha (pSer300) in HEK293T cells. Briefly: Cellular immunofluorescence assay, PDH-E1alpha (pSer300) in HEK293T cells. Format: cell-based, human. The conditions noted are these: Homo sapiens, HEK-293T, 5 hours incubation, anti-PDH-E1alpha (pSer300) immunofluorescence, read-out: IC50 (cell data). As to the method:
Cellular Assay for Determination of Compound Activities
Compound activities were determined in a cellular immunofluorescence assay. Human HEK293T cells were seeded into black 384-well plates with clear bottom and grown overnight.
Next day, test compounds were added to the wells and the plates incubated for 5 hours. Following this, cells were fixed with formaldehyde, permeabilised and blocked. The primary antibody, Anti-PDH-E1alpha (pSer300), AP1064 (Merck Millipore) was added and incubated overnight in the plate wells. Next, cells were washed and the secondary antibody, Alexa Fluor 488, goat anti-rabbit ab (A-11008, Invitrogen) was added together with Hoechst 33258 (H3569, Invitrogen) and incubated for 1 hour in the plate wells. Finally, cells were washed and the plates were measured on the laser scanning cytometer acumen hci (TTpLabtech).
The raw data were normalized against a pharmacological inhibitor control and dose response curves were generated by plotting the percent effect values using the software package Genedata screener (Genedata).

A further assay deals with human PDHK2 (12-407) (Homo sapiens (Human), UniProt Q15119). Kind of assay: Isothermal titration calorimetry (ITC) binding. The note with it: ITC at 30° C., pH 7.5. The protocol: Isothermal Titration Calorimetry
ITC measurements were performed with a VP-ITC micro calorimeter (Microcal, LLC/GE Healthcare Bio-Sciences Aft Uppsala, Sweden). In general titrations were performed by titrating the protein (50 μM) to the test compound (5 μM) in 12 μl injections. All binding experiments were carried out at 30° C. In general the test compounds were diluted form DMSO stock solutions into the measurement buffer with a maximum final concentration of 1% DMSO. The measurement buffer was 20 mM HEPES, 135 mM KCl, 1 mM TCEP, 2 mM MgCl2, 15 mM NaH2PO4, pH 7.5. The human PDHK2 (12-407) was produced in E. coli as his-tagged protein and purified by affinity chromatography. The tag was removed by side specific proteolysis. Before titration the protein buffer was changed to the measurement buffer containing the same DMSO concentration as the test compound dilution. ITC data analysis was performed using Origin 7 calorimetry software from the same supplier. For most measurements a binding model of one binding site was assumed. According to the applied mathematical model it is possible to calculate the binding constant (KA), the observed binding enthalpy (ΔH^obs) as well as the stoichiometry (N) of the formed complex.
Preceding analysis the raw data was corrected for the heats of dilution by extrapolating from the saturation value from the end of titration. In order to allow for direct comparison between the respective experimental series and protein preparations the protein concentration was corrected by referencing titrations to a well behaved standard inhibitor. The apparent stoichiometry values defined the fraction of binding competent protein and compensated for relative errors in protein concentration measurements. This corrected protein concentration was used to set up ITC experiment series with test compounds. Any deviations from ideal 1:1 stoichiometry observed here were attributed to errors in compound concentration. This nominal compound concentration was corrected as well to achieve 1:1 stoichiometry in the fit.
For orientation: Isothermal titration calorimetry measures the heat released or taken up as one component is titrated into another.

Results on 15 compounds are retold here after US10526325B2, “Bicyclic heterocyclic derivatives” (Merck Patent GmbH, priority 2015, dated 2020).

Some results are limits rather than exact numbers.

One may read the IC50 as the concentration that inhibits the measured activity by half. One may read the Kd as the constant that tells how readily two partners part at equilibrium. High values mean a looser complex, low ones a tighter complex. As to `CC1CN(C(=O)[C@@](C)(O)C(F)(F)F)Cc2cnn(-c3ccc(Cl)cc3)c21` (stereo partly drawn) [Compound A9, (2R)-1-[1-(4-chlorophenyl)-7-methyl-6,7-dihydro-4H-pyrazolo[4,3-c]pyridin-5-yl]-3,3,3-trifluoro-2-hydroxy-2-methyl-propan-1-one], the IC50 (at PDHK2; in assay [1]) was less than 300 nM throughout. The Kd on human PDHK2 (12-407) is less than 300 nM.

`C[C@@H]1CN(C(=O)[C@@](C)(O)C(F)(F)F)Cc2cnn(-c3ccc(Cl)cc3)c21` [Compound A10, (R)-1-[(R)-1-(4-Chloro-phenyl)-7-methyl-1,4,6,7-tetrahydro-pyrazolo[4,3-c]pyridin-5-yl]-3,3,3-trifluoro-2-hydroxy-2-methyl-propan-1-one]: the IC50 (at PDHK2; in assay [1]) was less than 300 nM throughout. The same compound gave a Kd on human PDHK2 (12-407) of less than 300 nM.

As for `C[C@H]1CN(C(=O)[C@@](C)(O)C(F)(F)F)Cc2cnn(-c3ccc(Cl)cc3)c21` [Compound A11, (R)-1-[(S)-1-(4-Chloro-phenyl)-7-methyl-1,4,6,7-tetrahydro-pyrazolo[4,3-c]pyridin-5-yl]-3,3,3-trifluoro-2-hydroxy-2-methyl-propan-1-one], the IC50 on PDHK2 was 3000 to 50000 nM; in assay [1], 300 to 3000 nM. This compound displayed a Kd at human PDHK2 (12-407) of 300 to 3000 nM.

Regarding `CC1CN(C(=O)[C@@](C)(O)C(F)(F)F)Cc2cnn(-c3ccc(F)cc3)c21` (stereo partly drawn) [Compound A12, (2R)-3,3,3-trifluoro-1-[1-(4-fluorophenyl)-7-methyl-6,7-dihydro-4H-pyrazolo[4,3-c]pyridin-5-yl]-2-hydroxy-2-methyl-propan-1-one], the IC50 (at PDHK2; in assay [1]) was less than 300 nM each time. On human PDHK2 (12-407), this compound gave a Kd of less than 300 nM.

On to `CC1CN(C(=O)[C@@](C)(O)C(F)(F)F)Cc2cn(-c3ccc(F)cc3)nc21` (stereo partly drawn) [Compound A13, (2R)-3,3,3-trifluoro-1-[2-(4-fluorophenyl)-7-methyl-6,7-dihydro-4H-pyrazolo[4,3-c]pyridin-5-yl]-2-hydroxy-2-methyl-propan-1-one], for which the IC50 at PDHK2 was in the range of 300 to 3000 nM; in assay [1], 3000 to 50000 nM. The compound further registered a Kd on human PDHK2 (12-407) of 300 to 3000 nM.

Consider `C[C@@H]1CN(C(=O)[C@@](C)(O)C(F)(F)F)Cc2cnn(-c3ccc(F)cc3)c21` [Compound A14, (R)-3,3,3-Trifluoro-1-[(R)-1-(4-fluoro-phenyl)-7-methyl-1,4,6,7-tetrahydro-pyrazolo[4,3-c]pyridin-5-yl]-2-hydroxy-2-methyl-propan-1-one], for which the IC50 (on PDHK2; in assay [1]) was less than 300 nM each time. Further, the Kd at human PDHK2 (12-407) was less than 300 nM.

In the case of `CC1CN(C(=O)[C@@](C)(O)C(F)(F)F)Cc2cnn(-c3ccccc3)c21` (stereo partly drawn) [Compound A16, (R)-3,3,3-Trifluoro-2-hydroxy-2-methyl-1-(7-methyl-1-phenyl-1,4,6,7-tetra-hydro-pyrazolo[4,3-c]pyridin-5-yl)-propan-1-one], the IC50 (at PDHK2; in assay [1]) was less than 300 nM each time. The Kd on human PDHK2 (12-407) was less than 300 nM.

Consider `CC1CN(C(=O)[C@@](C)(O)C(F)(F)F)Cc2cn(-c3ccccc3)nc21` (stereo partly drawn) [Compound A17, (R)-3,3,3-Trifluoro-2-hydroxy-2-methyl-1-(7-methyl-2-phenyl-2,4,6,7-tetra-hydro-pyrazolo[4,3-c]pyridin-5-yl)-propan-1-one], for which the IC50 (at PDHK2; in assay [1]) was 300 to 3000 nM in each case. Moreover, the Kd at human PDHK2 (12-407) lay in the range of 300 to 3000 nM.

On to `C[C@@H]1CN(C(=O)[C@@](C)(O)C(F)(F)F)Cc2cnn(-c3ccccc3)c21` [Compound A18, (R)-3,3,3-Trifluoro-2-hydroxy-2-methyl-1-((R)-7-methyl-1-phenyl-1,4,6,7-tetrahydro-pyrazolo[4,3-c]pyridin-5-yl)-propan-1-one], for which the IC50 (at PDHK2; in assay [1]) was less than 300 nM each time. The Kd at human PDHK2 (12-407) was less than 300 nM.

Turning to `C[C@@H]1CN(C(=O)[C@@](C)(O)C(F)(F)F)Cc2cnn(-c3ccc(F)cc3F)c21` [Compound A20, (R)-1-[(R)-1-(2,4-Difluoro-phenyl)-7-methyl-1,4,6,7-tetrahydro-pyrazolo[4,3-c]pyridin-5-yl]-3,3,3-trifluoro-2-hydroxy-2-methyl-propan-1-one], the IC50 (on PDHK2; in assay [1]) was less than 300 nM each time. At human PDHK2 (12-407), the Kd was less than 300 nM.

Regarding `C[C@@H]1CN(C(=O)[C@@](C)(O)C(F)(F)F)Cc2cnn(C(C)(C)C)c21` [Compound A22, (R)-1-((R)-1-tert-Butyl-7-methyl-1,4,6,7-tetrahydro-pyrazolo[4,3-c]pyridin-5-yl)-3,3,3-trifluoro-2-hydroxy-2-methyl-propan-1-one], the IC50 (at PDHK2; in assay [1]) was less than 300 nM throughout. Besides, at human PDHK2 (12-407), the Kd was less than 300 nM.

With `C[C@@H]1CN(C(=O)[C@@](C)(O)C(F)(F)F)Cc2cnn(-c3ccccc3F)c21` [Compound A24, (R)-3,3,3-Trifluoro-1-[(R)-1-(2-fluoro-phenyl)-7-methyl-1,4,6,7-tetrahydro-pyrazolo[4,3-c]pyridin-5-yl]-2-hydroxy-2-methyl-propan-1-one], the IC50 (on PDHK2; in assay [1]) was less than 300 nM in each case. In addition, the Kd at human PDHK2 (12-407) is less than 300 nM.

Turning to `C[C@@H]1CN(C(=O)[C@@](C)(O)C(F)(F)F)Cc2cn[nH]c21` [Compound A28, (R)-3,3,3-Trifluoro-2-hydroxy-2-methyl-1-((R)-7-methyl-1,4,6,7-tetrahydro-pyrazolo[4,3-c]pyridin-5-yl)-propan-1-one], the IC50 on PDHK2 lay within 300 to 3000 nM; in assay [1], 3000 to 50000 nM. Besides, on human PDHK2 (12-407), the Kd is less than 300 nM.

On to `C[C@@H]1CN(C(=O)[C@@](C)(O)C(F)(F)F)Cc2cnn(-c3ncccc3F)c21` [Compound A32, (R)-3,3,3-Trifluoro-1-[(R)-1-(3-fluoro-pyridin-2-yl)-7-methyl-1,4,6,7-tetrahydro-pyrazolo[4,3-c]pyridin-5-yl]-2-hydroxy-2-methyl-propan-1-one], for which the IC50 (on PDHK2; in assay [1]) was less than 300 nM in each case. Also, the Kd at human PDHK2 (12-407) is less than 300 nM.

Take `C[C@@H]1CN(C(=O)[C@@](C)(O)C(F)(F)F)Cc2cnn(-c3ncc(F)cc3F)c21` [Compound A34, (R)-1-[(R)-1-(3,5-Difluoro-pyridin-2-yl)-7-methyl-1,4,6,7-tetrahydro-pyrazolo[4,3-c]pyridin-5-yl]-3,3,3-trifluoro-2-hydroxy-2-methyl-propan-1-one]: the IC50 (on PDHK2; in assay [1]) was less than 300 nM each time. On human PDHK2 (12-407), this compound gave a Kd of less than 300 nM.
